Reference: publication PMC9884808, “Pharmacokinetics, tissue distribution, and antitumor activity of a novel compound, NY-2, in non-small cell lung cancer” (Frontiers in Pharmacology, 2023)
Like-named read-outs stand apart in the source and are kept apart here. Marks after values point to notes of the source that are not given here.

Experiments:
T47D = assay: MTT cell viability assay; assay type: cell-based, human; design: key to IC50 T47D: -: poor activity, cannot be unified; details: T47D breast cancer cells; for IC50: Homo sapiens
Description: (§1) The human colorectal cancer cell lines, HCT116 and LoVo, the breast cancer cell line, T47D, the hepatocellular carcinoma cell line, HepG2, the normal human liver cell line, HL7702, human umbilical vein endothelial cells (HUVECs), and the non-small cell lung cancer cell lines, A549, H1993, HCC827, H460, were purchased from the American Type Culture Collection (Manassas, VA, United States). Cell lines were cultured in the recommended RPMI-1640 medium (AE24464298, Hyclone, United States) and DMEM medium (AE29422278, Hyclone, United States) supplemented with 10% fetal bovine serum (FBS; JC63470, FB15015, Clark, United States) with 1% penicillin-streptomycin. Cells were maintained in an incubator at 37°C with 5% CO2 (HF90,Sanyo, Japan) and passaged every 48–72 h, after detaching with 0.25% trypsin (Sigma, United States). The compounds ZLDI-8 and NY-1 to -15 were synthesized in the laboratory of Dr. Huaiwei Ding in Shenyang Pharmaceutical University, and verified by high-performance liquid chromatography (purity >95%) for use in experiments (Supplementary Figure S1). Paclitaxel was purchased from MedChemExpress (HY-B0015, 99.97% purity, United States).
(§2) Cell viability was measured by the MTT assay. HCT116, HL7702, A549, H1993, HCC827, and H460 cells were dispensed into 96-well plates at a density of 1 × 10^5 cells/mL. After 24–48 h incubation, cells were treated with the compounds at different concentrations for the indicated periods. An assay kit (WLA073, Wanlei Co., Liaoning, China), was used according to the manufacturer’s instructions to measure LDH activity, The absorbance at 450 nm was measured with a microplate reader (Elx-800, Bio-Rad, China).
(§3) The preliminary antitumor activity of the series of ZLDI-8 derivatives, NY-1 to -15 was screened by the MTT cell viability assay. […] The antitumor activity of NY-2 on HCT116 cells was concentration- and time-dependent, and slightly better than that of the original compound, ZLDI-8.

HCT116 = assay: MTT cell viability assay; assay type: cell-based, human; design: key to IC50 HCT116: -: poor activity, cannot be unified; details: for IC50 HCT116: HCT116 colorectal cancer cells; for IC50: Homo sapiens, HCT-116, HCT116 colorectal cancer cells
Description: as §1, §2, §3

HepG2 = assay: MTT cell viability assay; assay type: cell-based, human; design: key to IC50 HepG2: -: poor activity, cannot be unified; details: HepG2 hepatocellular carcinoma cells; for IC50: Homo sapiens
Description: as §1, §2, §3

LoVo = assay: MTT cell viability assay; assay type: cell-based, human; design: key to IC50 LoVo: -: poor activity, cannot be unified; details: LoVo colorectal cancer cells; for IC50: Homo sapiens
Description: as §1, §2, §3

A549 cells = details: 28 days, NY-2 6 mg/kg, paclitaxel 1 mg/kg; for Lung metastasis of nude mice, number of mice (%): six mice per group, model 5 mice (83.3%)
Description: The experimental groups included the normal (no tumor cells, vehicle) group, the model (tumor cells, vehicle) group, NY-2-treated, and paclitaxel-treated groups, with six mice in each group. After 7 days for adaptation, 200 µL of A549 cells (2× 10^6 cells/mice) in serum-free medium were injected into the tail vein except for those in the normal group. Drug or vehicle administration via tail vein was started on the next day. The normal group and model group were given the same amount of sterile water containing 1% DMSO and 1% Tween as vehicle control. […] Injections were done every other day. The general conditions of the nude mice, with regard to activity and food ingestion, were observed every day, and their body weight was measured every other day.
KM mice were treated with ZLDI-8 or NY-2 by tail vein injection (6 mg/kg) for 7 days, then the mice were euthanized and liver and kidney tissues were removed and sectioned. For the experiment with BALB/c nude mice, the tail vein injections of NY-2 (6 mg/kg) were continued for 28 days, and the lungs, tumor, heart, liver, and kidney were removed. […] Sections for staining were dewaxed with xylene and then rehydrated, and hematoxylin-eosin staining was performed, after which the sections were again dehydrated in ethanol and cleared with xylene before being mounted on a slide, cover-slipped and examined microscopically. The remainder of the tumors and tissues was frozen in liquid nitrogen for other studies.

Row | Compound | IC50 (HepG2) [µM] | IC50 (HCT116) [µM] | IC50 HepG2 (HepG2) | IC50 (LoVo) [µM] | IC50 (T47D) [µM] | also measured
1 | Cc1ccc(OCCn2c(C)c(C=C3C(=O)NC(=O)NC3=O)c3ccccc32)c(C)c1 [NY-1] | 26.2 |  |  |  |  | IC50 T47D (T47D): -; IC50 HCT116 (HCT116): -; IC50 LoVo (LoVo): -
2 | Cc1c(C=C2C(=O)NC(=O)NC2=O)c2ccccc2n1CCOc1ccc(F)cc1 [NY-3] |  | 43.7 | - | 21.4 |  | IC50 T47D (T47D): -
3 | Cc1c(C=C2C(=O)NC(=S)NC2=O)c2ccccc2n1CCOc1cccc(F)c1 [NY-4] |  | 27.5 | - | 41.8 | 25.4 | 
4 | Cc1c(C=C2C(=O)NC(=O)NC2=O)c2ccccc2n1CCOc1cccc(F)c1 [NY-5] | 37.2 | 11.4 |  | 23.5 | 34 | 
5 | O=C1NC(=O)C(=Cc2cn(CCOc3cccc(F)c3)c3ccccc23)C(=O)N1 [NY-6] | 40.8 | 38.8 |  | 28.7 | 53.7 | 
6 | Cc1c(C=C2C(=O)NC(=S)NC2=O)c2ccccc2n1CCOc1cccc(C(F)(F)F)c1 [NY-7] | 77.4 | 12.5 |  | 20.6 | 21.8 | 
7 | Cc1c(C=C2C(=O)NC(=O)NC2=O)c2ccccc2n1CCOc1cccc(C(F)(F)F)c1 [NY-8] |  |  | - | 38.1 | 10.3 | IC50 HCT116 (HCT116): -
8 | O=C1NC(=O)C(=Cc2cn(CCOc3cccc(C(F)(F)F)c3)c3ccccc23)C(=O)N1 [NY-9] | 85.2 | 35.3 |  |  |  | IC50 T47D (T47D): -; IC50 LoVo (LoVo): -
9 | Cc1c(C=C2C(=O)NC(=S)NC2=O)c2ccccc2n1CCOc1ccc(Cl)cc1Cl [NY-10] | 66.7 | 26 |  | 86.4 | 23.3 | 
10 | Cc1c(C=C2C(=O)NC(=O)NC2=O)c2ccccc2n1CCOc1ccc(Cl)cc1Cl [NY-11] | 90.1 |  |  | 23.2 | 16.6 | IC50 HCT116 (HCT116): -
11 | O=C1NC(=O)C(=Cc2cn(CCOc3ccc(Cl)cc3Cl)c3ccccc23)C(=O)N1 [NY-12] |  | 20 | - |  | 40.4 | IC50 LoVo (LoVo): -
12 | Cc1c(C=C2C(=O)NC(=S)NC2=O)c2ccccc2n1CCOc1cccc2ccccc12 [NY-13] | 33.1 | 12.8 |  | 43.2 | 5.15 | 
13 | Cc1c(C=C2C(=O)NC(=O)NC2=O)c2ccccc2n1CCOc1cccc2ccccc12 [NY-14] |  |  | - |  | 74.3 | IC50 HCT116 (HCT116): -; IC50 LoVo (LoVo): -
14 | O=C1NC(=O)C(=Cc2cn(CCOc3cccc4ccccc34)c3ccccc23)C(=O)N1 [NY-15] | 13.5 | 11.3 |  | 124 | 21.4 | 
15 | CC(=O)O[C@H]1C(=O)[C@@]2(C)[C@H]([C@H](OC(=O)c3ccccc3)[C@]3(O)C[C@H](OC(=O)[C@H](O)[C@@H](NC(=O)c4ccccc4)c4ccccc4)C(C)=C1C3(C)C)[C@]1(OC(C)=O)CO[C@@H]1C[C@@H]2O [Paclitaxel, reference compound] |  |  |  |  |  | Body weight before dissection (A549 cells; nude mice with A549 lung metastasis, tail vein every other day, n=6, mean ± SEM): 22.72 ± 0.32 g; Kidney as a proportion of body weight (A549 cells; nude mice, n=6, mean ± SEM): 1.74 ± 0.03 10^-2; Liver as a proportion of body weight (A549 cells; nude mice, n=6, mean ± SEM): 5.45 ± 0.20# 10^-2; Lung as a proportion of body weight (A549 cells; nude mice, n=6, mean ± SEM): 0.64 ± 0.02 10^-2; Quality of the heart (A549 cells; nude mice, n=6, mean ± SEM): 0.14 ± 0.01 g; Quality of the kidney (A549 cells; nude mice, n=6, mean ± SEM): 0.41 ± 0.01 g; Quality of the liver (A549 cells; nude mice, n=6, mean ± SEM): 1.29 ± 0.06 g; Quality of the lung (A549 cells; nude mice, n=6, mean ± SEM): 0.15 ± 0.01 g; infiltration of A549 cells in the lung tissue (H&E) (A549 cells; nude mice): no infiltration of A549 cells in the lung tissue; Lung metastasis of nude mice, number of mice (%) (A549 cells): 0 (0); Lung metastasis of nude mice, number of mice (%) (A549 cells; listed as paclitaxel): No metastatic tumors were found
